From patent publication US12410133B2, “Crystalline (r)-5-carbamoylpyridin-3-yl-2-methyl-4-(3-(trifluoromethoxy)benzyl)piperazine-1-carboxylate, compositions and methods of use thereof” (Celgene Corporation, priority 2018, dated 2025) come the findings set out here.

In brackets after ≈: the same amount, converted by molar mass. Bounds are passed on as bounds.

What all share (type): physicochemical
Data set [1] in a line: Interconversion study: competitive slurry of Form A and B. Particulars: competitive slurry, H2O/PhMe, 1-3 weeks. On the procedure:
An interconversion study of crystal forms was performed. To understand the thermodynamic stability relationship between Form A and B, competitive slurry experiments were performed at RT and 50° C. in water and toluene. Prior to the study, Form A was used to saturate the corresponding solvent before it was filtered to obtain a near-saturated solution. Equal amounts of Form A and B samples were weighed and then mixed with the prepared near-saturated solution to form a new suspension, which was stirred magnetically (˜1000 rpm) at RT and 50° C.

Data set [2] is described as follows: Visual solubility assessment of Form B at room temperature. Particulars: organic solvent or mixture, thermodynamic from solid. As to the method: Approximately 55 to 90 mg of Form B was added into a 4 mL glass vial. Solvent list in Table 18 was added into each of the vial. These samples were stirred for 3 minutes prior to visual solubility assessment.
A short description of data set [3]: Solubility of Form B in FaSSIF-v2 and FeSSIF-v2 at 37° C. Particulars: for Final Form: residual solid by XRPD, 2 hr. As to the method: Solubility of Form B was evaluated at 2 hr for Form B in FaSSIF-v2 and FeSSIF-v2 at 37° C. Approximately 10 to 20 mg of Form B sample was added in 0.8 mL of corresponding bio-relevant medium to form a suspension, followed by shaking at 500 rpm at 37° C. After 2 hr, the supernatants were isolated by centrifugation (7200 rpm for 5 min) followed by filtration through […] PTFE membrane and were tested by HPLC concentration and pH. The residual solids were characterized by XRPD. As summarized in Table 17, Form B converted to a new form (Form C) after solubility evaluation, while the solubility in FaSSIF-v2 and FeSSIF-v2 was measured to be 0.12 and 0.080 mg/mL, respectively.

Turning to `C[C@@H]1CN(Cc2cccc(OC(F)(F)F)c2)CCN1C(=O)Oc1cncc(C(N)=O)c1` [Form A + B, (R)-5-carbamoylpyridin-3-yl-2-methyl-4-(3-(trifluoromethoxy)benzyl)piperazine-1-carboxylate], the “Final Form” value in data set [1] (50° C.) and in data set [1] (RT) was “Form A” each time.

`C[C@@H]1CN(Cc2cccc(OC(F)(F)F)c2)CCN1C(=O)Oc1cncc(C(N)=O)c1` [Form B, (R)-5-carbamoylpyridin-3-yl-2-methyl-4-(3-(trifluoromethoxy)benzyl)piperazine-1-carboxylate]: the solubility at 3 min was more than 810 mg/mL in data set [2] (2-Me THF, room temperature); more than 365 mg/mL in data set [2] (2-Propanol, room temperature); more than 430 mg/mL in data set [2] (Acetone, room temperature); more than 720 mg/mL in data set [2] (Acetonitrile, room temperature); more than 830 mg/mL in data set [2] (Dichloromethane, room temperature); more than 800 mg/mL in data set [2] (EtOH, room temperature). In addition, the solubility at 3 min is more than 800 mg/mL in data set [2] (Ethyl Acetate, room temperature); more than 730 mg/mL in data set [2] (H2O/MeCN 1/3 (v/v) Aw~0.9, room temperature); more than 780 mg/mL in data set [2] (H2O/MeOH 1/3 (v/v) Aw~0.5, room temperature); less than 810 mg/mL in data set [2] (Isopropyl Acetate, room temperature); more than 560 mg/mL in data set [2] (Nitromethane, room temperature). Also, the solubility at 2 h stood at 0.12 mg/mL (≈ 0.274 mM) in data set [3] (FaSSIF-v2, thermodynamic from solid, FaSSIF (pH 6.5), final pH 6.6) and 0.08 mg/mL (≈ 0.182 mM) in data set [3] (FeSSIF-v2, thermodynamic from solid, FeSSIF (pH 5.8), final pH 5.9). In addition, the “Final Form” value in data set [3] (FaSSIF (pH 6.5)) and in data set [3] (FeSSIF (pH 5.8)) was “Form C” throughout.
